Results taken from patent publication US20250296922A1, “POLYSUBSTITUTED PYRROLIDINE DERIVATIVE, PREPARATION METHOD THEREFOR AND USE THEREOF” (SHANGHAI WENNAI THERAPEUTICS CO LTD, priority 2023, published 2025).

Experiments:
CYP1A2 = CYP1A2 (Homo sapiens (Human), UniProt P05177); experiment: Human liver microsomal CYP inhibition test, CYP1A2; assay type: in vitro ADME; settings: microsomes
Procedure: (§1) 3.1 Buffer solutions: (1) potassium phosphate 100 mM; (2) magnesium chloride, 33 mM;
(§2) 3.2.3 Reservoir for compounds to be tested: Dissolving the compounds to be tested in DMSO to form a 10 mM DMSO solution.
(§3) 3.4.1 Preparation of human liver microsomal working solution (1.27×) (final concentration: 0.2 mg/mL)
(§4) 3.5.3 Adding 20 μL of substrate solution to the appropriate wells and 20 μL of potassium phosphate buffer to the blank wells;
(§5) 3.5.4 Adding 2 μL of different concentrations of target compounds (final concentrations from 0.05 μM to 50 μM, 7 concentrations in total) or standard inhibitors to each well, with 2 μL of methanol solution in the non-inhibitor and blank wells;
(§6) 3.5.5 Adding 1.012 mL of liver microsomes to 78.988 mL of potassium phosphate buffer, then adding 158 μL of liver microsomes solution to all wells; preheating the well plate for 10 minutes in a 37° C. water bath;
(§7) 3.5.6 Weighing 129.1 mg NADPH (purchased from SyncoZymes Co. Ltd.) and adding to 15.0 mL of 33 Mm MgCl2 solution to give a 10 mM concentration, adding 20 μL to each well;
(§8) 3.5.7 Mixing and incubating the well plate in a 37° C. water bath for 10 minutes, then adding 400 μL of cold termination solution at the appropriate time point;
(§9) 3.5.8 Centrifuging the sample at 4000 rpm for 20 minutes to precipitate the protein. Transferring 200 μL of supernatant to 100 μL of HPLC water and shaking for 10 minutes. The samples were analyzed by LC/MS/MS;
(§10) Percentage inhibition was plotted for blank control and different concentrations of target compounds by using XL fitting or SigmaPlot and the data were analyzed by non-linear regression. IC50 values were determined by using either 3-parameter or 4-parameter logistic equations.

Nav1.8 sodium channel = Nav1.8 sodium channel (Homo sapiens (Human), UniProt Q9Y5Y9); experiment: NaV1.8 blocking activity, manual patch clamp; assay type: cell-based; settings: CHO cell line stably expressing Nav1.8
Chain of Nav1.8 sodium channel (Q9Y5Y9 whole entry): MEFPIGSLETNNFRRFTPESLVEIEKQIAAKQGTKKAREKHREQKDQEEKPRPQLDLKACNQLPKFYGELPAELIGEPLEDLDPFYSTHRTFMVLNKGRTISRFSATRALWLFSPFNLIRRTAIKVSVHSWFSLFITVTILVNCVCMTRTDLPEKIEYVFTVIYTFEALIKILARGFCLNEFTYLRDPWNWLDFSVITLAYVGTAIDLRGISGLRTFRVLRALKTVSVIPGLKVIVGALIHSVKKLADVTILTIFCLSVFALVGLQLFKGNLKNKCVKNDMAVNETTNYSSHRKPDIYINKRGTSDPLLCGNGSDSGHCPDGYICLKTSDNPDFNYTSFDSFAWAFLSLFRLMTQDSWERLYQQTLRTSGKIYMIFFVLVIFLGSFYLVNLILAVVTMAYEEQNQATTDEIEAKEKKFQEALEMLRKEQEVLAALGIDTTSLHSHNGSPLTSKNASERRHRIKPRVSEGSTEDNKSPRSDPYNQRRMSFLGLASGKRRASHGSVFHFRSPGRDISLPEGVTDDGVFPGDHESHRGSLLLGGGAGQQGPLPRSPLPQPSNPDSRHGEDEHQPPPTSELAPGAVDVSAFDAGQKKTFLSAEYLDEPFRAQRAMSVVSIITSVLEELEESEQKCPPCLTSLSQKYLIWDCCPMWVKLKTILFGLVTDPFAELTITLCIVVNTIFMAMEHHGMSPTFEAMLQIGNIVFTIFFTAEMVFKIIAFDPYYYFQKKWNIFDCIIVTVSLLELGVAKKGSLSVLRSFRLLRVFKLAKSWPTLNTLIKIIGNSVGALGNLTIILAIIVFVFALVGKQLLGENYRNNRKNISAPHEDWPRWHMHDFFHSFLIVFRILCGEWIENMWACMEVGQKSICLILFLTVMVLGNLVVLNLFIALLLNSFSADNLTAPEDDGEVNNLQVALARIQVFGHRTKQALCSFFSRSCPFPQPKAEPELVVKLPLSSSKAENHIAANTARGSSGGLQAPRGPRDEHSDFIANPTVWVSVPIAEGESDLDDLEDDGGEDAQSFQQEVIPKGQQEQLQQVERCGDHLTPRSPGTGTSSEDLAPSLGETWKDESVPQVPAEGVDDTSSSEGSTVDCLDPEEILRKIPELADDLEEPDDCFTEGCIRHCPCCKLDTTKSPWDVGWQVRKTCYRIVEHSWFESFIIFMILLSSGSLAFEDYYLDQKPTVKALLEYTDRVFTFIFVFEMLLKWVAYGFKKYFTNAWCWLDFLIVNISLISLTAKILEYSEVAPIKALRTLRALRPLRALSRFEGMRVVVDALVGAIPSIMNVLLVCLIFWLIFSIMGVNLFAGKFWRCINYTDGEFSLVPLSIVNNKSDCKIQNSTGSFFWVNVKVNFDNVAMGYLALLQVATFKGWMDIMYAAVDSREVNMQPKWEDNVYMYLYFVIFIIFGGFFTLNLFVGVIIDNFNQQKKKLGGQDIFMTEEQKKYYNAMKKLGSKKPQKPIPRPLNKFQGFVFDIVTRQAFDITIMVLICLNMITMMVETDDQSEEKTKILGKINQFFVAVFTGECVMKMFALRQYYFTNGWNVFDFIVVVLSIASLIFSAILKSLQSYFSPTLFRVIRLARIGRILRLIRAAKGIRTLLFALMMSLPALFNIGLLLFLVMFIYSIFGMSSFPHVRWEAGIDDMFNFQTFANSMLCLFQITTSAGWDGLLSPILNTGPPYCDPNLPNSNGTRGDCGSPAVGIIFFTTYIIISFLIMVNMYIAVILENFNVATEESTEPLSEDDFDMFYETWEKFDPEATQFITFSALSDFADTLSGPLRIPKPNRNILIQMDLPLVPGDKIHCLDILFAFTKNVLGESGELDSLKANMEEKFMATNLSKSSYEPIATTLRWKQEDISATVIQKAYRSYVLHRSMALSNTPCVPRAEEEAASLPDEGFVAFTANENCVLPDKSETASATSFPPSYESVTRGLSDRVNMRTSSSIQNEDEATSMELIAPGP
Procedure: The NaV1.8 blocking activity was determined by using a manual patch clamp technique to detect the effect of the subject on the channel currents of stably overexpressed Nav1.8.
CHO cell line stably expressing the Nav1.8 sodium channel was used for the experiments, gene information: sodium channel, voltage-gated, type 8, alpha (SCN10A), cDNA strictly similar to GenBank accession number: NM 006514.
Cells were cultured in HAM'S/F-12 medium containing 10% foetal bovine serum and 10 μg/mL Blasticidin, 200 μg/mL Hygromycin B, and 100 μg/mL Zeocin at 37° C., 5% CO2. For expansion or maintenance cultures, cells were treated with 0.25%-Trypsin-EDTA, washed and centrifuged, and then inoculated in 6-cm cell culture dishes with 2.5×10^5lls per cell culture dish (final volume: 5 mL).
Prior to the patch clamp detection, cells were separated with 0.25%-Trypsin-EDTA and 6.5×10^3 cells were spread onto coverslips and incubated (final volume: 500 μL) in 24-well plates for 18 hours, then the test was performed.
50 mM CsCl, 10 mM NaCl, 10 mM HEPES, 60 mM CsF, 20 mM EGTA, and pH was adjusted to 7.2 with CsOH. • Instrument information is provided in Table 2 below:
Prior to Nav1.8 channel current testing, a blank control solution (DMSO) was diluted into 10 ml of extracellular fluid as the working solution. Positive controls and subjects were first diluted with different doses of DMSO depending on the final concentration before being diluted as working solution using extracellular fluid. 100 nM TTX was added to each working solution to block the TTX-S current. The working solution was sonicated for 20 min before performing the patch clamp test detection.
Patch clamp manipulation: firstly, the capillary glass tube was drawn into a recording electrode using a microelectrode puller, then the electrode filled with intracellular fluid was loaded into the microelectrode holder, and the microelectrode manipulator was manoeuvred under an inverted microscope to immerse the electrode into the extracellular fluid and record the electrode resistance (Rpip). The electrode was then slowly contacted to the cell surface and negative pressure suction was given to form a GQ2 seal. At this time, fast capacitance compensation was performed and negative pressure was continually applied to suction through the cell membrane to form a whole-cell recording pattern. Finally, slow capacitance compensation was performed and experimental parameters such as series resistance (Rs) were recorded. No leakage compensation was given.
Drug administration was initiated when the Nav1.8 current was stabilized for whole-cell recordings, and the next concentration was detected after each drug concentration had acted for approximately 5 min (or until the current was stable). Cell-lined coverslips were placed in the recording bath under an inverted microscope, and the blank control external solution as well as the working solution of the compound to be tested flowed sequentially from low to high concentrations through the recording bath by using gravitational perfusion and thus acted on the cells, and a peristaltic pump was used to exchange fluids during the recording. The current detected by each cell in the compound-free external fluid served as its own control. Each concentration was repeated independently 2-3 times. All electrophysiological experiments were performed at room temperature.
The voltage stimulation scheme for whole-cell patch-clamp recording of Nav1.8 currents was as follows: when a whole-cell seal was formed, the voltage was clamped at −120 mV. The resting state recording of sodium currents was performed by maintaining the voltage for 5s and then depolarizing it to 0 mV, and then administering a depolarizing pulse (TP1) to 0 m V for 50 ms for detecting the resting state sodium currents. For half-inactivated state recording, the voltage was first stepped at different voltages and maintained for 5s and then a depolarizing pulse was given to 0 mV to detect the Vhalf. […]

CYP3A-M = CYP3A-M (Homo sapiens, UniProt P08684); experiment: Human liver microsomal CYP inhibition test, CYP3A-M (midazolam); assay type: in vitro ADME; settings: human liver microsomes 0.2 mg/mL; substrate Midazolam
Chain of CYP3A-M (P08684 2-503 limits assumed): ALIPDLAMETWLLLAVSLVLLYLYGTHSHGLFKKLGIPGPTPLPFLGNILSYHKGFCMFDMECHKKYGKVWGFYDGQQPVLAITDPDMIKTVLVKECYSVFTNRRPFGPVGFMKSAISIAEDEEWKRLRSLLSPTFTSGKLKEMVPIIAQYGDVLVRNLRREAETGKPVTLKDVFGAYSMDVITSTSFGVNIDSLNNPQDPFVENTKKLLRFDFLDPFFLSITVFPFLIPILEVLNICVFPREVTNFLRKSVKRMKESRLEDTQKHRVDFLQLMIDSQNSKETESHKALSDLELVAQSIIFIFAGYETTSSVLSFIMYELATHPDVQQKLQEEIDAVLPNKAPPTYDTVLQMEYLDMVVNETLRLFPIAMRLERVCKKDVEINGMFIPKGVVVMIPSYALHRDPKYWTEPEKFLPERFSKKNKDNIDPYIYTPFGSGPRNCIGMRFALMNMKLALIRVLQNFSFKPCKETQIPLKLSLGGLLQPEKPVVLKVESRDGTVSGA
Procedure: as §1, §2, §3, §4, §5, §6, §7, §8, §9, §10

CYP2D6 = CYP2D6 (Homo sapiens (Human), UniProt P10635); experiment: Human liver microsomal CYP inhibition test, CYP2D6; assay type: in vitro ADME; settings: human liver microsomes 0.2 mg/mL; substrate Dextromethorphan
Chain of CYP2D6 (P10635 whole entry): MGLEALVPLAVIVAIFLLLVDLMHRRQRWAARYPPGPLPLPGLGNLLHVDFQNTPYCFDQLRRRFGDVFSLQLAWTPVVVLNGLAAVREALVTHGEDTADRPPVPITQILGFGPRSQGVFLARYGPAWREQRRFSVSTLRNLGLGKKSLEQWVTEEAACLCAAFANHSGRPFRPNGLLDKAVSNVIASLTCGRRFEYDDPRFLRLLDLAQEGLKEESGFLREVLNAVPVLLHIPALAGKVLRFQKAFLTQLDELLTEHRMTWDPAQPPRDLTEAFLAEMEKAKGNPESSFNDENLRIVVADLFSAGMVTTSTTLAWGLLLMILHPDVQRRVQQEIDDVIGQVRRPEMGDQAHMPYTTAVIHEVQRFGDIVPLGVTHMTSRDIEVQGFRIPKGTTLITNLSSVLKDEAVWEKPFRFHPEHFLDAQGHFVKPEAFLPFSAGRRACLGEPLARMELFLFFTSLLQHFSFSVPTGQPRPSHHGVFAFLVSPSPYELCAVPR
Procedure: as §1, §2, §3, §4, §5, §6, §7, §8, §9, §10

CYP2C9 = CYP2C9 (Homo sapiens (Human), UniProt P11712); experiment: Human liver microsomal CYP inhibition test, CYP2C9; assay type: in vitro ADME; settings: human liver microsomes 0.2 mg/mL; substrate Diclofenac
Chain of CYP2C9 (P11712 whole entry): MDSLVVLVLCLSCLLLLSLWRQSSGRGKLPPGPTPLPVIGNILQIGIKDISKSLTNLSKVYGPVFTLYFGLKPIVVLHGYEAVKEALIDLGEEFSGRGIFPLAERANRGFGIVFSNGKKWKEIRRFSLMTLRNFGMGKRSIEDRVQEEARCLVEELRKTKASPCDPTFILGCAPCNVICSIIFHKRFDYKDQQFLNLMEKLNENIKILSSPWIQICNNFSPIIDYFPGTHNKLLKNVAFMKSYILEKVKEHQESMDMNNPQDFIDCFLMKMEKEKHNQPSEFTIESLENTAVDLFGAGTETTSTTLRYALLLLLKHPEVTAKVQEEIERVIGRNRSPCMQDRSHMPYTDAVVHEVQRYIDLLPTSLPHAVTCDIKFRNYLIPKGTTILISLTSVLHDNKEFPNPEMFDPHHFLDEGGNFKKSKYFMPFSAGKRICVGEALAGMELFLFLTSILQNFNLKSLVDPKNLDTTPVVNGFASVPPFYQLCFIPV
Procedure: as §1, §2, §3, §4, §5, §6, §7, §8, §9, §10

CYP2C19 = CYP2C19 (Homo sapiens (Human), UniProt P33261); experiment: Human liver microsomal CYP inhibition test, CYP2C19; assay type: in vitro ADME; settings: human liver microsomes 0.2 mg/mL; substrate S-mephenytoin
Chain of CYP2C19 (P33261 whole entry): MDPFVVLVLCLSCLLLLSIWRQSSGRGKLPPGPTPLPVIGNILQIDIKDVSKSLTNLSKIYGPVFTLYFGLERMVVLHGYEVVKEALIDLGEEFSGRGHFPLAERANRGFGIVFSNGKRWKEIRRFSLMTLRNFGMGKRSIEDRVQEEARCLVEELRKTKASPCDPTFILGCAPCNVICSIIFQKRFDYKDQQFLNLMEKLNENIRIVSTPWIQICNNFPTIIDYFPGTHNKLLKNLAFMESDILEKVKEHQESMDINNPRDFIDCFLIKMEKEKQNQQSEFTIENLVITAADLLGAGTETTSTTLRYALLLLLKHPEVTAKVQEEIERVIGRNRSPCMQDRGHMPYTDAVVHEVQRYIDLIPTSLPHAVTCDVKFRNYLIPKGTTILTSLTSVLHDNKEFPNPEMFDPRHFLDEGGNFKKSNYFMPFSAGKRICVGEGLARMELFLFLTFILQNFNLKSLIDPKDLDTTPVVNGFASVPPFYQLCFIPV
Procedure: as §1, §2, §4, §5, §6, §7, §8, §9, §10

[1] = Stability of the compound in liver microsomes (human); assay type: in vitro ADME; settings: 1 μM compound, 0.5 mg protein/mL
Procedure: (§11) 2.1.1. working solution: 5 μL of test or control compound stock solution (10 mM DMSO solution) was diluted with 495 μL of acetonitrile (ACN) to obtain an intermediate stock solution (100 μM, 99% ACN).
(§12) 2.2.2 Preparation procedure: An appropriate amount of NADPH powder was weighed and diluted with 10 mM MgCl2 buffer (working solution concentration: 10 mM; final reaction system concentration: 1 mM).
(§13) 2.3.2 Preparation procedure: The appropriate concentration of liver microsomal working solution was prepared in 100 mM potassium phosphate buffer;
(§14) Acetonitrile (ACN) solution at 4° C. containing 200 ng/mL of Tolbutamide and 200 ng/ml of labetalol as internal standards 2.5. Operation steps:
(§15) 2.5.2. Diluting liver microsomes with 100 mM potassium phosphate buffer to a concentration of 0.56 mg/mL.
(§16) 2.5.3. Transferring 445 μL of liver microsomal working solution (0.56 mg/mL) to pre-heated incubation plates T60 and NCF60, and then pre-heating the incubation plates T60 and NCF60 for 10 minutes at 37° C. with shaking. Transferring 54 μL of liver microsomes to each well of the blank plate, adding 6 μL of NAPDH coenzyme solution to the blank plate, and finally transferring 180 μL of termination solution to the blank plate.
(§17) 2.5.4 Adding 5 μL of compound working solution (100 μM) to the incubation plates T60 and NCF60 containing liver microsomes and mixing three times.
(§18) 2.5.5. Adding 50 μL of buffer to the NCF60 plate and mixing three times, starting the timer and incubating at 37° C. for 60 min with the plate shaking.
(§19) 2.5.6. Adding 180 μL of quenching solution and 6 μL of NAPDH coenzyme working solution sequentially to quenching plate TO, making sure that the plate was cold to prevent volatilization of the incubation solution.
(§20) 2.5.7. For plate T60, mixing well three times and immediately transferring 54 μL of mixing solution (0-min time point) to quenching plate TO, then adding 44 μL of NAPDH coenzyme working solution to incubation plate T60. Starting the timer:
(§21) 2.5.8. At the 5, 15, 30, 45 and 60 minute time points, adding 180 μL of quenching solution to the quenching plate and transferring 60 μL of reaction solution from the T60 plate to the quenching plate at each time point.
(§22) 2.5.9. For NCF60 plates, mixing well and transferring 60 μL of reaction solution from the NCF60 incubating solution to a quenching plate containing 180 μL of quenching solution at 60th minute.
(§23) 2.5.10. All plates were mixed on a shaker for 10 min and then centrifuged at 4000 rpm at 4° C. for 20 min.
(§24) 2.5.11. Transferring 80 μL of supernatant to 240 μL of HPLC water and mixing on a
(§25) 2.6.1. Calculating t1/2 and Clint (mic) values based on first-order elimination kinetics: […]

[2] = Stability of the compound in liver microsomes (rat); assay type: in vitro ADME, SD rat; settings: 1 μM compound, 0.5 mg protein/mL
Procedure: as §11, §12, §13, §14, §15, §16, §17, §18, §19, §20, §21, §22, §23, §24, §25

[3] = Stability of the compound in liver microsomes (mouse); assay type: in vitro ADME, CD-1 mouse; settings: 1 μM compound, 0.5 mg protein/mL
Procedure: as §11, §12, §13, §14, §15, §16, §17, §18, §19, §20, §21, §22, §23, §24, §25

Chain of CYP1A2 (P05177 whole entry): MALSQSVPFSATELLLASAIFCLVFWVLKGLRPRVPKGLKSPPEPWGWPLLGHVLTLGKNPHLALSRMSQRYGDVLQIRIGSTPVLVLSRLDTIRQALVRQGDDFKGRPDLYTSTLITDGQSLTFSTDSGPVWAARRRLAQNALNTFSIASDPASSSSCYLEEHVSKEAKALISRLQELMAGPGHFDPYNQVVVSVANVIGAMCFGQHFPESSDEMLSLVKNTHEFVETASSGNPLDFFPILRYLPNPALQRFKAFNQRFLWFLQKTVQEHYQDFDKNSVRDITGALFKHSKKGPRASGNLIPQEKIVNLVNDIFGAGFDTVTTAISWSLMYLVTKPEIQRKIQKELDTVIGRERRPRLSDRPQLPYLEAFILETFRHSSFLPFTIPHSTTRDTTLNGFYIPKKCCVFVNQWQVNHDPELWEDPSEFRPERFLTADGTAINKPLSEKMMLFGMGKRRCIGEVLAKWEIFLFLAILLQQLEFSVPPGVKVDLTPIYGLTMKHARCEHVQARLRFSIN

Row | Human liver microsomes T½ ([1]; 37° C.) | Human liver microsomes Residual (T = 60 min) ([1]; T = 60 min) | IC50 (Nav1.8 sodium channel) | Rat liver microsomes T½ ([2]; 37° C.) | Rat liver microsomes Residual (T = 60 min) ([2]; T = 60 min) | Mouse liver microsomes T½ ([3]; 37° C.) | Mouse liver microsomes Residual (T = 60 min) ([3]; T = 60 min) | Structure (SMILES) | IC50 (CYP1A2) | Blocking rate (%) @3 nM (Nav1.8 sodium channel; 3 nM) | Blocking rate(%) @10 nM (Nav1.8 sodium channel) | IC50 (CYP3A-M) | IC50 (CYP2D6) | IC50 (CYP2C9) | IC50 (CYP2C19)
1 | – | – | – | – | – | – | – | COc1c([C@H]2[C@H](C(=O)Nc3ccc(F)c(C(=N)NO)c3)N[C@@](C)(C(F)(F)F)[C@H]2C)ccc(F)c1F.Cl [Compound 10, (2R,3S,4S,5R)-3-(3,4-difluoro-2-methoxyphenyl)-aza-(4-fluoro-3-(aza-hydroxycarbamimidoyl)phenyl)-4,5-dimethyl-5-(trifluoromethyl) pyrrolidine-2-carboxamide hydrochloride] | > 50 µM | 95.18% | 99.13% | 39.3 µM | > 50 µM | > 50 µM | 3.05 µM
2 | 80.6 min | 58.4% | 0.0013 µM | 18.9 min | 11.1% | 41.9 min | 37.1% | COc1c([C@H]2[C@H](C(=O)Nc3ccnc(C(N)=O)c3)N[C@@](C)(C(F)(F)F)[C@H]2C)ccc(F)c1F [Compound 1, 4-((2R,3S,4S,5R)-3-(3,4-difluoro-2-methoxyphenyl)-4,5-dimethyl-5-(trifluoromethyl)pyrrolidine-2-carboxamido)pyridine amide] | – | – | 97.98% | – | – | – | –
